Structures can show the parent of a compound that is named as a salt. Where two headings read alike, the source gives them in different places.
Key:
BIR2 domain of XIAP = BIR2 domain of XIAP (Homo sapiens (Human), UniProt P98170, C202A/C213G); assay: TR-FRET assay for BIR2: inhibition of binding of the XIAP BIR2 domain to Peptide A (SMAC-derived peptide)
Protocol: (§1) TR-FRET Assay for BIR2 and BIR3
(§2) The ability of a test compound to inhibit the binding of BIR2 and/or BIR3 domains of the XIAP protein to Peptide A (a SMAC-derived peptide described below) evidences that the test compound acts as a SMAC-mimetic resulting in reactivation of a cell's apoptotic pathway.
(§3) The peptides were labeled with the fluorescent tags FITC or TAMRA and Kd values were determined by fluorescence polarization assay. […] The peptide sequence was derivatized with biotin to provide […]-(ε-biotin)-OH 1:2 TFA as the substrate for the TR-FRET assay.
The XIAP protein sequence was obtained from the SWISS-PROT protein sequence database and the BIR2 and BIR3 domains were derived from that. The sequence of the BIR2 domain used for the TR-FRET assay is […].
(§4) Ten nanomolar of 6× Histidine-tagged BIR2 domain, corresponding to amino acids 124-240 of XIAP, or BIR3 domain, corresponding to amino acids 241-356 of XIAP, was mixed with 20 nM of the peptide […]-(ε-biotin)-OH 1:2 TFA, in the presence of 50 mM Tris-Cl, pH 7.5, 100 mM NaCl, 1 mM dithiothreitol (DTT) and 0.1 mg/mL bovine serum albumin (BSA). Following a […] incubation at 37° C., Europium-Streptavidin and Allophycocyanin conjugated anti-Histidine antibody were added to a final concentration of 1.5 nM and 15 nM, respectively. Time-resolved fluorescence resonance energy transfer (TR-FRET) signals were measured 1 hour later at room temperature. Test compound potency was assessed at 10 serially diluted concentrations. Percentage of inhibition at each concentration was determined to generate an IC50 value for each test compound.

BIR3 domain of XIAP = BIR3 domain of XIAP (Homo sapiens (Human), UniProt P98170); assay: TR-FRET assay for BIR3: inhibition of binding of the XIAP BIR3 domain to Peptide A (SMAC-derived peptide)
Protocol: as §1, §2, §3
The sequence of the BIR3 domain used for the TR-FRET assay is […]
as §4

[1] = 6x His-tagged BIR2 domain (aa 124-240 of XIAP), 10 nM, 20 nM Peptide A, TR-FRET, read-out: Ic50 BIR2
[2] = 6x His-tagged BIR3 domain (aa 241-356 of XIAP), 10 nM, 20 nM Peptide A, TR-FRET, read-out: Ic50 BIR3

BIR3 domain of XIAP, sequence (P98170 other isoform, or with tags, fused parts or gaps): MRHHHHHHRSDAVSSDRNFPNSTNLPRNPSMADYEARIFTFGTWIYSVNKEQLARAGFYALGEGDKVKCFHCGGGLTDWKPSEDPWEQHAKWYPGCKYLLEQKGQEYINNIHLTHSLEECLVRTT
BIR2 domain of XIAP, sequence (P98170 other isoform, or with tags, fused parts or gaps, stated change not applied): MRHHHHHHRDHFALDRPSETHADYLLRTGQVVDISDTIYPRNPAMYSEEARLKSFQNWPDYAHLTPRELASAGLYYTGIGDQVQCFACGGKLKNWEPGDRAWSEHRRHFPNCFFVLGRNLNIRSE

Structure (SMILES) | IC50 (BIR2 domain of XIAP; [1]) | IC50 (BIR3 domain of XIAP; [2]) | other results
CN[C@@H](C)C(=O)N[C@H](C(=O)N1c2ncccc2C[C@H]1CNC(=O)c1ccccc1)C(C)C [Example 1, N—{(S)-1-[(S)-3-Methyl-2-((S)-2-methylamino-propionylamino)-butyryl]-2,3-dihydro-1H-pyrrolo[2,3-b]pyridin-2-ylmethyl}-benzamide, hydrochloride] | 0.888 µM | 53 µM | –
CN[C@@H](C)C(=O)N[C@H](C(=O)N1c2ncccc2C[C@H]1CNC(=O)OCc1ccccc1)C(C)C [Example 11, {(S)-1-[(S)-3-Methyl-2-((S)-2-methylamino-propionylamino)-butyryl]-2,3-dihydro-1H-pyrrolo[2,3-b]pyridin-2-ylmethyl}-carbamic acid benzyl ester] | 1.05 µM | > 54.8 µM | –
CN[C@@H](C)C(=O)N[C@H](C(=O)N1c2ncccc2C[C@H]1CNc1ccc2ccccc2c1)C(C)C [Example 14, (S)-2-methylamino-N—{(S)-2-methyl-1-[(S)-2-(naphthalen-2-ylaminomethyl)-2,3-dihydro-pyrrolo[2,3-b]pyridine-1-carbonyl]-propyl}-propionamide hydrochloride] | 0.506 µM | 3.95 µM | –
CN[C@@H](C)C(=O)N[C@H](C(=O)N1c2ncccc2C[C@H]1CNC(=O)Oc1ccccc1)C(C)C [Example 12, {(S)-1-[(S)-3-Methyl-2-((S)-2-methylamino-propionylamino)-butyryl]-2,3-dihydro-1H-pyrrolo[2,3-b]pyridin-2-ylmethyl}-carbamic acid phenyl ester hydrochloride] | – | – | IC50 (BIR2 domain of XIAP): 1.62 µM; IC50 (BIR3 domain of XIAP): > 54.8 µM
CNC(=O)NCC1Cc2cccnc2N1C(=O)[C@@H](NC(=O)[C@H](C)NC)C(C)C (stereo partly drawn) [Example 3, (S)-2-Methylamino-N-((S)-2-methyl-1-{2-[(3-methyl-ureido)-methyl]-2,3-dihydro-pyrrolo[2,3-b]pyridine-1-carbonyl}-propyl)-propionamide hydrochloride] | 4.88 µM | > 54.8 µM | –
CN[C@@H](C)C(=O)N[C@H](C(=O)N1c2ncccc2CC1CNC(C)=O)C(C)C (stereo partly drawn) [Example 2, (S)-N-{(S)-1-[2-(Acetylamino-methyl)-2,3-dihydro-pyrrolo[2,3-b]pyridine-1-carbonyl]-2-methyl-propyl}-2-methylamino-propionamide hydrochloride] | – | – | IC50 (BIR2 domain of XIAP; read-out: Ic50 BIR2): 4.67 µM; IC50 (BIR3 domain of XIAP; read-out: Ic50 BIR3): > 54.8 µM
CN[C@@H](C)C(=O)N[C@H](C(=O)N1c2ncccc2C[C@H]1CNC(=O)C(C)c1ccccc1)C(C)C (stereo partly drawn) [Example 8, (S)-2-Methylamino-N-((S)-2-methyl-1-{(S)-2-[(2-phenyl-propionylamino)-methyl]-2,3-dihydro-pyrrolo[2,3-b]pyridine-1-carbonyl}-propyl)-propionamide hydrochloride] | 2.56 µM | > 54.8 µM | –
CN[C@@H](C)C(=O)N[C@H](C(=O)N1c2ncccc2C[C@H]1CNC(=O)Cc1ccccc1)C(C)C [Example 4, (S)-2-Methylamino-N-{(S)-2-methyl-1-[(S)-2-(phenylacetylamino-methyl)-2,3-dihydro-pyrrolo[2,3-b]pyridine-1-carbonyl]-propyl}-propionamide hydrochloride] | 1.57 µM | > 54.8 µM | –

More lines, main results first:

IC50 (BIR2 domain of XIAP; [1]) | IC50 (BIR3 domain of XIAP; [2]) | Structure (SMILES) | other results
1.67 µM | > 54.8 µM | CN[C@@H](C)C(=O)N[C@H](C(=O)N1c2ncccc2C[C@H]1CNC(=O)OC)C(C)C [Example 5, {(S)-1-[(S)-3-Methyl-2-((S)-2-methylamino-propionylamino)-butyryl]-2,3-dihydro-1H-pyrrolo[2,3-b]pyridin-2-ylmethyl}-carbamic acid methyl ester hydrochloride] | –
1.54 µM | > 54.8 µM | CN[C@@H](C)C(=O)N[C@H](C(=O)N1c2ncccc2C[C@H]1CNC(=O)Nc1ccccc1)C(C)C [Example 7, (S)-2-Methylamino-N-((S)-2-methyl-1-{(S)-2-[(3-phenyl-ureido)-methyl]-2,3-dihydro-pyrrolo[2,3-b]pyridine-1-carbonyl}-propyl)-propionamide hydrochloride] | –
0.82 µM | > 54.8 µM | CN[C@@H](C)C(=O)N[C@H](C(=O)N1c2ncccc2C[C@H]1CNS(=O)(=O)c1ccccc1)C(C)C [Example 10, (S)-N-{(S)-1-[(S)-2-(Benzenesulfonylamino-methyl)-2,3-dihydro-pyrrolo[2,3-b]pyridine-1-carbonyl]-2-methyl-propyl}-2-methylamino-propionamide hydrochloride] | –
0.307 µM | 5.34 µM | CN[C@@H](C)C(=O)N[C@H](C(=O)N1c2ncccc2C[C@H]1CNc1ccccc1)C(C)C [Example 13, (S)-2-Methylamino-N—[(S)-2-methyl-1-((S)-2-phenylaminomethyl-2,3-dihydro-pyrrolo[2,3-b]pyridine-1-carbonyl)-propyl]-propionamide, hydrochloride] | –
1.24 µM | > 54.8 µM | CN[C@@H](C)C(=O)N[C@H](C(=O)N1c2ncccc2C[C@H]1CNS(C)(=O)=O)C(C)C [Example 9, (S)-N-{(S)-1-[(S)-2-(Methanesulfonylamino-methyl)-2,3-dihydro-pyrrolo[2,3-b]pyridine-1-carbonyl]-2-methyl-propyl}-2-methylamino-propionamide hydrochloride] | –
6.17 µM | > 54.8 µM | CN[C@@H](C)C(=O)N[C@H](C(=O)N1c2ncccc2C[C@H]1CNC(=O)N(C)C)C(C)C [Example 6, (S)-N-{(S)-1-[(S)-2-(3,3-Dimethyl-ureidomethyl)-2,3-dihydro-pyrrolo[2,3-b]pyridine-1-carbonyl]-2-methyl-propyl}-2-methylamino-propionamide hydrochloride] | –
